Assay [1] addresses T1, beta-catenin/TCF4 engagement (Homo sapiens, UniProt P35222).
T1 construct: expressed in transfected cells; host or cells: HEK293
T1 sequence (P35222 1-781): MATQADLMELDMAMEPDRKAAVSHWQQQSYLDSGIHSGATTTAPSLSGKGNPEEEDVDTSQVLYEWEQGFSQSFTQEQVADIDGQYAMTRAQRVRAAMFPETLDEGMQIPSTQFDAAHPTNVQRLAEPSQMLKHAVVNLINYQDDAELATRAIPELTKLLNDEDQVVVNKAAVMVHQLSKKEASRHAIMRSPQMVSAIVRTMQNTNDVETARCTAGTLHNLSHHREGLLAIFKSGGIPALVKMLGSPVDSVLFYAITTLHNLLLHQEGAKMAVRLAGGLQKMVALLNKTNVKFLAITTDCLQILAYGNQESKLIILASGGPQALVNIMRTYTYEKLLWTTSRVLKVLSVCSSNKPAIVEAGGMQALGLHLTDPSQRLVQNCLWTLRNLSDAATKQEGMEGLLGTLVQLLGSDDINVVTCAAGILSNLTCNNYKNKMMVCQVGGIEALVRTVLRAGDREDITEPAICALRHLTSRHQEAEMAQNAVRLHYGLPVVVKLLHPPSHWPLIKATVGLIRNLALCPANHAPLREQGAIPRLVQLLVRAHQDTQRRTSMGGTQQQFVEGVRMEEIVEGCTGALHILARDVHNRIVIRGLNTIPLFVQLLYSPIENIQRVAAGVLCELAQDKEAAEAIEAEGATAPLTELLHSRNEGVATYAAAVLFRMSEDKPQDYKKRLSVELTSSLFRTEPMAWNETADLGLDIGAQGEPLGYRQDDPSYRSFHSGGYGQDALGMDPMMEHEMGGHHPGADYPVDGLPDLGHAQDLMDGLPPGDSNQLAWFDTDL
Put plainly: Nano-BRET target engagement assay (B-cat-Halo & TCF4-Luc in HEK293 cells). The assay is classed as cell-based. The note with it: absolute IC50; read-out: NanoBRET Abs IC50. A general note: Bioluminescence resonance energy transfer reports proximity on the nanometre scale.

For assay [2], the target named is T2, full-length beta-Catenin (Uniprot ID P35222) (Homo sapiens, UniProt P35222).
T2 construct: 10 nM full-length beta-Catenin (Uniprot ID P35222)
T2 sequence (P35222 1-781): T1 sequence (P35222 1-781)
Kind of assay: Fluorescence polarization IC50 (beta-catenin / 5FAM-TCF4 10-53 competition). Type of assay: binding. The note with it: fluorescence polarization; read-out: beta-Catenin FP IC50. A general note: Polarisation of emitted light reports the rotation of a fluorescent probe.

This is an account of results in patent US20240116985A1, “STAPLED PEPTIDES AND METHODS THEREOF” (priority 2020, published 2024).

For orientation: IC50 means the point on the concentration scale where inhibition reaches its midpoint. As to `CC(=O)N1CCC[C@]12CC=CCCCC1(CCCC=CCCCOC(=O)N3CC[C@@](C(=O)N[C@@H](Cc4ccsc4)C(=O)N[C@@H](Cc4csc5ccccc45)C(=O)N[C@@H](CCC(N)=O)C(N)=O)(C3)NC(=O)[C@H](CCCN3CCOCC3)NC(=O)[C@H](Cc3ccccc3)NC(=O)[C@H](C)NC(=O)[C@H](C)NC(=O)[C@H](CC(=O)O)NC(=O)[C@H](CC(=O)O)NC1=O)NC(=O)[C@H](CC(C)(C)C)NC(=O)[C@H](CC(=O)O)NC2=O` (stereo partly drawn) [I-1485, Ac-PL3-Asp-Npg-B5-Asp-Asp-Ala-Ala-Phe-MorphNva-PyrS2-3Thi-BztA-Gln-NH2], the results for the half-maximal inhibitory concentration (IC50) in assay [1] and in assay [2] were 25800 nM and 7 nM, respectively.

Take `CC(=O)N1CCC[C@]12CC=CCCCC1(CCCC=CCCCOC(=O)N3CC[C@@](C(=O)N[C@@H](Cc4ccsc4)C(=O)N[C@@H](Cc4csc5ccccc45)C(=O)N[C@@H](CCC(N)=O)C(N)=O)(C3)NC(=O)[C@H](CCCN3CCC(F)(F)CC3)NC(=O)[C@H](Cc3ccccc3)NC(=O)[C@H](C)NC(=O)[C@H](C)NC(=O)[C@H](CC(=O)O)NC(=O)[C@H](CC(=O)O)NC1=O)NC(=O)[C@H](CC(C)(C)C)NC(=O)[C@H](CC(=O)O)NC2=O` (stereo partly drawn) [I-1486, Ac-PL3-Asp-Npg-B5-Asp-Asp-Ala-Ala-Phe-F2PipNva-PyrS2-3Thi-BztA-Gln-NH2]: the IC50 worked out at 17900 nM in assay [1] and 5 nM in assay [2].

On to `CC(=O)N1CCC[C@]12CC=CCCCC1(CCCC=CCCCOC(=O)N3CC[C@@](C(=O)N[C@@H](Cc4ccsc4)C(=O)N[C@@H](Cc4csc5ccccc45)C(=O)N[C@@H](CCC(N)=O)C(N)=O)(C3)NC(=O)[C@H](CC(=O)N3CCOCC3)NC(=O)[C@H](Cc3ccccc3)NC(=O)[C@H](C)NC(=O)[C@H](C)NC(=O)[C@H](CC(=O)O)NC(=O)[C@H](CC(=O)O)NC1=O)NC(=O)[C@H](CC(C)(C)C)NC(=O)[C@H](CC(=O)O)NC2=O` (stereo partly drawn) [I-1487, Ac-PL3-Asp-Npg-B5-Asp-Asp-Ala-Ala-Phe-MorphAsn-PyrS2-3Thi-BztA-Gln-NH2], for which the IC50 was 21500 nM in assay [1] and 7 nM in assay [2].

As for `CC(=O)N1CCC[C@]12CC=CCCCC1(CCCC=CCCCOC(=O)N3CC[C@@](C(=O)N[C@@H](Cc4ccsc4)C(=O)N[C@@H](Cc4csc5ccccc45)C(=O)N[C@@H](CCC(N)=O)C(N)=O)(C3)NC(=O)[C@H](CC(=O)N3CCN(C)CC3)NC(=O)[C@H](Cc3ccccc3)NC(=O)[C@H](C)NC(=O)[C@H](C)NC(=O)[C@H](CC(=O)O)NC(=O)[C@H](CC(=O)O)NC1=O)NC(=O)[C@H](CC(C)(C)C)NC(=O)[C@H](CC(=O)O)NC2=O` (stereo partly drawn) [I-1488, Ac-PL3-Asp-Npg-B5-Asp-Asp-Ala-Ala-Phe-MePpzAsn-PyrS2-3Thi-BztA-Gln-NH2], the IC50 in assay [1] is 30300 nM; in assay [2], 6 nM.

As for `CC(=O)N1CCC[C@]12CC=CCCCC1(CCCC=CCCCOC(=O)N3CC[C@@](C(=O)N[C@@H](Cc4ccsc4)C(=O)N[C@@H](Cc4csc5ccccc45)C(=O)N[C@@H](CC(N)=O)C(N)=O)(C3)NC(=O)[C@H](CC(C)C)NC(=O)[C@H](Cc3ccccc3)NC(=O)[C@H](C)NC(=O)[C@H](C)NC(=O)[C@H](CC(=O)O)NC(=O)[C@H](CC(=O)O)NC1=O)NC(=O)[C@H](CC(C)(C)C)NC(=O)[C@H](CC(=O)O)NC2=O` (stereo partly drawn) [I-1492, Ac-PL3-Asp-Npg-B5-Asp-Asp-Ala-Ala-Phe-Leu-PyrS2-3Thi-BztA-Asn-NH2], the IC50 in assay [1] stood at 7300 nM; in assay [2], 5 nM.

For the compound `CC(=O)N1CCC[C@]12CC=CCCCC1(CCCC=CCCCOC(=O)N3CC[C@@](C(=O)N[C@@H](Cc4ccsc4)C(=O)N[C@@H](Cc4csc5ccccc45)C(=O)N[C@@H](CO)C(N)=O)(C3)NC(=O)[C@H](CC(C)C)NC(=O)[C@H](Cc3ccccc3)NC(=O)[C@H](C)NC(=O)[C@H](C)NC(=O)[C@H](CC(=O)O)NC(=O)[C@H](CC(=O)O)NC1=O)NC(=O)[C@H](CC(C)(C)C)NC(=O)[C@H](CC(=O)O)NC2=O` (stereo partly drawn) [I-1493, Ac-PL3-Asp-Npg-B5-Asp-Asp-Ala-Ala-Phe-Leu-PyrS2-3Thi-BztA-Ser-NH2], the values for the IC50 in assay [1] and in assay [2] were 4900 nM and 10 nM, respectively.

For `CC(=O)N1CCC[C@]12CC=CCCCC1(CCCC=CCCCOC(=O)N3CC[C@@](C(=O)N[C@@H](Cc4ccsc4)C(=O)N[C@@H](Cc4csc5ccccc45)C(=O)N[C@H](C(N)=O)[C@@H](C)O)(C3)NC(=O)[C@H](CC(C)C)NC(=O)[C@H](Cc3ccccc3)NC(=O)[C@H](C)NC(=O)[C@H](C)NC(=O)[C@H](CC(=O)O)NC(=O)[C@H](CC(=O)O)NC1=O)NC(=O)[C@H](CC(C)(C)C)NC(=O)[C@H](CC(=O)O)NC2=O` (stereo partly drawn) [I-1494, Ac-PL3-Asp-Npg-B5-Asp-Asp-Ala-Ala-Phe-Leu-PyrS2-3Thi-BztA-Thr-NH2], the figures for the IC50 in assay [1] and in assay [2] were 14700 nM and 5 nM, respectively.

As to `CC(=O)N1CCC[C@]12CC=CCCCC1(CCCC=CCCCOC(=O)N3CC[C@@](C(=O)N[C@@H](Cc4ccsc4)C(=O)N[C@@H](Cc4csc5ccccc45)C(=O)N[C@H](C(N)=O)C(C)C)(C3)NC(=O)[C@H](CC(C)C)NC(=O)[C@H](Cc3ccccc3)NC(=O)[C@H](C)NC(=O)[C@H](C)NC(=O)[C@H](CC(=O)O)NC(=O)[C@H](CC(=O)O)NC1=O)NC(=O)[C@H](CC(C)(C)C)NC(=O)[C@H](CC(=O)O)NC2=O` (stereo partly drawn) [I-1495, Ac-PL3-Asp-Npg-B5-Asp-Asp-Ala-Ala-Phe-Leu-PyrS2-3Thi-BztA-Val-NH2], the half-inhibitory concentration (IC50) in assay [1] came out at 23900 nM; in assay [2], 24 nM.

As for `CC(=O)N1CCC[C@]12CC=CCCCC1(CCCC=CCCCOC(=O)N3CC[C@@](C(=O)N[C@@H](Cc4ccsc4)C(=O)N[C@@H](Cc4csc5ccccc45)C(=O)N[C@@H](Cc4ccccc4)C(N)=O)(C3)NC(=O)[C@H](CC(C)C)NC(=O)[C@H](Cc3ccccc3)NC(=O)[C@H](C)NC(=O)[C@H](C)NC(=O)[C@H](CC(=O)O)NC(=O)[C@H](CC(=O)O)NC1=O)NC(=O)[C@H](CC(C)(C)C)NC(=O)[C@H](CC(=O)O)NC2=O` (stereo partly drawn) [I-1496, Ac-PL3-Asp-Npg-B5-Asp-Asp-Ala-Ala-Phe-Leu-PyrS2-3Thi-BztA-Phe-NH2], the half-maximal inhibitory concentration (IC50) was determined as 9400 nM in assay [1] and 51 nM in assay [2].

With `CC(=O)N1CCC[C@]12CC=CCCCC1(CCCC=CCCCOC(=O)N3CC[C@@](C(=O)N[C@@H](Cc4ccsc4)C(=O)N[C@@H](Cc4csc5ccccc45)C(=O)N[C@@H](Cc4c[nH]c5ccccc45)C(N)=O)(C3)NC(=O)[C@H](CC(C)C)NC(=O)[C@H](Cc3ccccc3)NC(=O)[C@H](C)NC(=O)[C@H](C)NC(=O)[C@H](CC(=O)O)NC(=O)[C@H](CC(=O)O)NC1=O)NC(=O)[C@H](CC(C)(C)C)NC(=O)[C@H](CC(=O)O)NC2=O` (stereo partly drawn) [I-1497, Ac-PL3-Asp-Npg-B5-Asp-Asp-Ala-Ala-Phe-Leu-PyrS2-3Thi-BztA-Trp-NH2], the concentration for half-maximal inhibition (IC50) in assay [1] worked out at 11400 nM; in assay [2] it was 50 nM.

For the compound `CC(=O)N1CCC[C@]12CC=CCCCC1(CCCC=CCCCOC(=O)N3CC[C@@](C(=O)N[C@@H](Cc4ccsc4)C(=O)N[C@@H](Cc4csc5ccccc45)C(=O)N[C@@H](CCO)C(N)=O)(C3)NC(=O)[C@H](CC(C)C)NC(=O)[C@H](Cc3ccccc3)NC(=O)[C@H](C)NC(=O)[C@H](C)NC(=O)[C@H](CC(=O)O)NC(=O)[C@H](CC(=O)O)NC1=O)NC(=O)[C@H](CC(C)(C)C)NC(=O)[C@H](CC(=O)O)NC2=O` (stereo partly drawn) [I-1499, Ac-PL3-Asp-Npg-B5-Asp-Asp-Ala-Ala-Phe-Leu-PyrS2-3Thi-BztA-Hse-NH2], the concentration for half-maximal inhibition (IC50) in assay [1] is 6400 nM; in assay [2], 23 nM.
